Values joined by “and” are separate entries in the source; they are usually repeats but may differ in a detail not shown here. Identical values can stand only once. “Also recorded” adds a separate entry of the source.
What was measured:
Type in all cases: in vivo, mouse
[1] = system: Pten^pc−/−; Zbtb7a^pc−/− prostate tumors; test: Tumor growth by MRI in Pten^pc−/−; Zbtb7a^pc−/− mice under drug or antibody treatment; details: for tumor volume: Pten-Zbtb7a, individual mice
Experimental: (§1) Mice were allocated at random to experimental groups and studies were performed in an unblended manner. For treatment with the CXCR2 antagonist, SB225002 (Cayman Chemical #13336) was dissolved in DMSO (10 mg/ml) and diluted in vehicle (0.9% NaCl, 0.3% Tween 80) for in vivo administration. Mice (4 months of age) were treated daily for 10 days by intraperitoneal injection (5 mg/kg) and prostate tumor tissue (anterior lobes) was subjected to Flow Cytometry and histological analysis. For MRI analysis, mice (4 months of age) were treated daily for 21 days (Pten^pc−/−; Zbtb7a^pc−/−), for 14 days (Pten^pc−/−; Trp53^pc−/−) or for 14 days (Pten^pc−/−; Pml^pc−/−) by intraperitoneal injection (5 mg/kg). For depletion of Gr-1+/CD11b+ cells, Ly6G-depletion antibody (1A8, BioXcell) and control Rat IgG2a antibody (BioXcell) were diluted in phosphate-buffered saline (PBS) for in vivo administration. Mice (4 months of age) were treated every other day for 10 days by intraperitoneal injection (200-300 μg/mouse). InVivoMAb anti-mouse Ly6G/Ly6C (Gr-1) antibody, clone RB6-8C5 (BE0075, BioXcell), and control Rat IgG2b antibody (BE0090, BioXcell) were diluted in PBS and Pten^pc−/−; Trp53^pc−/− mice were treated every other day for 14 days by intraperitoneal injection (200 μg/mouse). For neutralization of CXCL5, anti-Mouse CXCL5 antibody (Leinco Technologies) and control Rat IgG2a antibody (BioXcell) were diluted in PBS and injected every other day for 21 days by intraperitoneal injection (20 μg/mouse). Tumor volume quantification was performed by using VivoQuant and Image J software. All mouse prostate MRI imaging analysis was performed at Small Animal Imaging Core at BIDMC and acquired on an ASPECT Model M2 1T tabletop scanner.

[2] = system: Pten^pc−/−; Trp53^pc−/− prostate tumors; test: Flow cytometry of immune infiltrate in treated Pten^pc−/−; Trp53^pc−/− prostate tumors; details: Trp53^pc−/− prostate tumors after treatment
Experimental: Mice were allocated at random to experimental groups and studies were performed in an unblended manner. For treatment with the CXCR2 antagonist, SB225002 (Cayman Chemical #13336) was dissolved in DMSO (10 mg/ml) and diluted in vehicle (0.9% NaCl, 0.3% Tween 80) for in vivo administration. Mice (4 months of age) were treated daily for 10 days by intraperitoneal injection (5 mg/kg) and prostate tumor tissue (anterior lobes) was subjected to Flow Cytometry and histological analysis. For MRI analysis, mice (4 months of age) were treated daily for 21 days (Pten^pc−/−; Zbtb7a^pc−/−), for 14 days (Pten^pc−/−; Trp53^pc−/−) or for 14 days (Pten^pc−/−; Pml^pc−/−) by intraperitoneal injection (5 mg/kg). For depletion of Gr-1+/CD11b+ cells, Ly6G-depletion antibody (1A8, BioXcell) and control Rat IgG2a antibody (BioXcell) were diluted in phosphate-buffered saline (PBS) for in vivo administration. Mice (4 months of age) were treated every other day for 10 days by intraperitoneal injection (200-300 μg/mouse). […] Tumor volume quantification was performed by using VivoQuant and Image J software. […]
For Flow Cytometry, spleen and lymph node single cell suspensions were prepared by mashing the tissue in 2% FBS/PBS. […] All staining mixtures were analyzed on a BD LSR II flow cytometer (Becton Dickinson). Resulting profiles were further processed and analyzed using the FlowJo 8.7 software.

[3] = system: Pten^pc−/−; Trp53^pc−/− prostate tumors; test: Tumor growth by MRI in Pten^pc−/−; Trp53^pc−/− mice under drug or antibody treatment; details: for tumor volume: individual mice
Experimental: as §1

[4] = system: Pten^pc−/−; Pml^pc−/− prostate tumors; test: Tumor growth by MRI in Pten^pc−/−; Pml^pc−/− mice under CXCR2 antagonist treatment; details: for tumor volume: Pten-Pml, individual mice; for tumor growth: Pten^pc−/−, Pml^pc−/− mice, versus vehicle
Experimental: as §1

[5] = CXCR2i (SB225002 5 mg/kg i.p. daily), row 0 = day 0 baseline, MRI

## O=C(Nc1ccc([N+](=O)[O-])cc1O)Nc1ccccc1Br [SB225002]
[1]; [5]
  tumor volume: 54.248 mm3 and 79.3701 mm3 and 59.2774 mm3
[1]; CXCR2i, row 1 (weekly MRI)
  tumor volume: 44.3115 mm3 and 67.9688 mm3 and 65.0879 mm3
[1]; CXCR2i, row 2 (weekly MRI)
  tumor volume: 41.1865 mm3 and 68.9697 mm3 and 58.6914 mm3
[1]; CXCR2i, row 3 (weekly MRI, 3 weeks on treatment)
  tumor volume: 42.1142 mm3 and 71.3379 mm3 and 66.0889 mm3
[1]; Pten^pc−/−, Zbtb7a^pc−/− mice, versus vehicle or control IgG
  tumor growth: significantly suppressed the tumor growth; also recorded: significant inhibition of tumor growth
[2]
  Treg cells (Foxp3+): less Foxp3+ cells; also recorded: less Treg cells
  intra-tumoral Gr-1+/CD11b+ cells: decrease of Gr-1+/CD11b+ cells
[3]; Pten-Trp53, CXCR2i (SB225002 5 mg/kg i.p. daily), row 0 = day 0 baseline, MRI
  tumor volume: 67.016 mm3 and 32.276 mm3 and 66.382 mm3
[3]; Pten-Trp53, CXCR2i, row 1 (weekly MRI)
  tumor volume: 53.809 mm3 and 31.739 mm3 and 68.018 mm3
[3]; Pten-Trp53, CXCR2i, row 2 (weekly MRI, 2 weeks on treatment)
  tumor volume: 51.807 mm3 and 39.795 mm3 and 63.477 mm3
[3]; Pten^pc−/−, Trp53^pc−/− mice, versus vehicle or control IgG
  tumor growth: significantly suppressed the tumor growth; also recorded: significant inhibition of tumor growth
[4]; [5]
  tumor volume: 45.996 mm3 and 37.426 mm3
[4]; CXCR2i, row 1 (weekly MRI)
  tumor volume: 53.662 mm3 and 43.164 mm3
[4]; CXCR2i, row 2 (weekly MRI, 2 weeks on treatment)
  tumor volume: 56.567 mm3 and 45.972 mm3
[4]
  tumor growth: did not show any significant response
[4]; listed as CXCR2i
  tumor growth: did not respond

From patent US20210301349A1, “COMPOSITIONS AND METHODS FOR TREATING A TUMOR SUPPRESSOR DEFICIENT CANCER” (BETH ISRAEL DEACONESS MEDICAL CENTER, INC., priority 2016, published 2021)
